For this experiment, the target named is T1, active p38 alpha enzyme (Upstate Biotechnology) (Homo sapiens, UniProt Q16539).
T1 construct: purchased Upstate Biotechnology
Nature of the experiment: p38α biochemical assay (ATP turnover, luminescent detection, Cambrex PKlight). As to conditions: Table 1 Biological Activity. How it is done: The p38α biochemical assay employed is based on measurement of total ATP turnover following enzyme incubation with substrate in the presence of ATP with the use of a luminescent detection reagent (Cambrex PKlight). The assays were performed in 1536-well white opaque plates.
The final volume was 7.5005 μL as prepared prepared from the addition of 5 ul of kinase reaction (p38 alpah+MapkapK2+ATP) with 0.0005 μL compound dissolved in DMSO, and 2.5 ul of the detection reagent. Assay buffer contains the following reagents to give final concentration in the assay: 200 mM Tris, 100 mM MgCl2, 1.5 mM EGTA, 4 mM CaCl2, 20 mM MOPS, 1 mM EDTA, 1% glycerol, 0.1% B-Mecaptoethanol, and 1 mg/ml BSA. Test compounds are pinned using proprietary pintool technology (Kalypsys, Inc) and delivered as […] amounts into the 5 ul mixture of active p38 alpha enzyme (Upstate Biotechnology) and MapkapK2 (Upstate Biotechnology) whole protein as a substrate for phosphorylation in the presence of 1.4 uM final concentration ATP. Reactions are incubated at 30C for 2 hours and detection reagent is added in 2.5 ul/well amounts. Assay is read using a Perkin Elmer Viewlux.

This passage reports IC50 results from patent US20060252807A1, “Novel ortho-terphenyl inhibitors of p38 kinase and methods of treating inflammatory disorders” (Kalypsys, Inc., priority 2005, published 2006).

T1 sequence (Q16539 whole entry): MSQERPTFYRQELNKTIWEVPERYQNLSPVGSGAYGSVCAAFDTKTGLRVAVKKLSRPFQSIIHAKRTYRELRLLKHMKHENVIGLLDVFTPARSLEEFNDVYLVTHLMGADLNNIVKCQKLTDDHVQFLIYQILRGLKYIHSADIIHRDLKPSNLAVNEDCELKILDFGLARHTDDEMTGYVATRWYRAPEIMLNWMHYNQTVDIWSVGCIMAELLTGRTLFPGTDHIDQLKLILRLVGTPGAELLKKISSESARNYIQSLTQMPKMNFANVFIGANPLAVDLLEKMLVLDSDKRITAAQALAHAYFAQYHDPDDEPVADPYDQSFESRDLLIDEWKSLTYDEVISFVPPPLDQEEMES

For orientation: IC50 means the concentration at which inhibition is half-maximal. A high value points to weaker potency. Turning to “2-|4-(4-Fluoro-phenyl)-5-oxo-2,5-dihydro-isoxazol-3-yl|-thiazole-4-carboxylic acid isopropyl amide [Example 2181]”, the IC50 (p38α kinase) is over 1000 nM.

Regarding `COCCOCn1nc(-c2ccc(F)cc2)c(-c2nc(C=NOC)cs2)c1C` (single isomer, unassigned) [Example 2186, 2-|3-(4-Fluoro-phenyl)-1-(2-methoxy-ethoxymethyl)-5-methyl-1H-pyrazol-4-yl|-thiazole-4-carbaldehyde O-methyl-oxime], the IC50 (p38α kinase) was over 1000 nM.

Compound `COCCOCn1nc(-c2ccc(F)cc2)c(-c2nc(C=NOC)cs2)c1C` (single isomer, unassigned) [Example 2187, 2-|3-(4-Fluoro-phenyl)-1-(2-methoxy-ethoxymethyl)-5-methyl-1H-pyrazol-4-yl|-thiazole-4-carbaldehyde O-methyl-oxime] displayed an IC50 (p38α kinase) of over 1000 nM.

Where the note is “p38α biochemical assay”, `Cc1onc(-c2ccc(Cl)cc2)c1-c1ccn(C(=O)NC(C)C)n1` [Example 2, 3-|3-(4-Chloro-phenyl)-5-methyl-isoxazol-4-yl|-pyrazole-1-carboxylic acid isopropylamide] registered an IC50 of at most 1000 nM.

Regarding `CNC(=O)n1ccc(-c2c(-c3ccc(Cl)cc3)noc2C)n1` [Example 3, 3-|3-(4-Chloro-phenyl)-5-methyl-isoxazol-4-yl|-pyrazole-1-carboxylic acid methylamide], the IC50 (p38α biochemical assay) was over 1000 nM.

In the case of `CCC(C)NC(=O)n1ccc(-c2c(-c3ccc(Cl)cc3)noc2C)n1` (centres unmarked) [Example 4, 3-|3-(4-Chloro-phenyl)-5-methyl-isoxazol-4-yl|-pyrazole-1-carboxylic acid sec-butylamide], the IC50 (p38α biochemical assay) is at most 1000 nM.

`Cc1onc(-c2ccc(Cl)cc2)c1-c1ccn(C(=O)NCCO)n1` [Example 5, 3-|3-(4-Chloro-phenyl)-5-methyl-isoxazol-4-yl|-pyrazole-1-carboxylic acid (2-hydroxy-ethyl)-amide] had a concentration for half-maximal inhibition (IC50) (p38α biochemical assay) of at most 1000 nM.

Turning to `Cc1onc(-c2ccc(Cl)cc2)c1-c1ccn(C(=O)NC(C)CO)n1` (centres unmarked) [Example 6, 3-|3-(4-Chloro-phenyl)-5-methyl-isoxazol-4-yl|-pyrazole-1-carboxylic acid (2-hydroxy-1-methyl-ethyl)-amide], the IC50 (p38α biochemical assay) was at most 1000 nM.

`Cc1onc(-c2ccc(Cl)cc2)c1-c1ccn(C(=O)NC2CC2)n1` [Example 7, 3-|3-(4-Chloro-phenyl)-5-methyl-isoxazol-4-yl|-pyrazole-1-carboxylic acid cyclopropylamide] gave an IC50 (p38α biochemical assay) of over 1000 nM.

In turn, `Cc1onc(-c2ccc(Cl)cc2)c1-c1ccn(C(=O)NC2CCCCC2)n1` [Example 8, 3-|3-(4-Chloro-phenyl)-5-methyl-isoxazol-4-yl|-pyrazole-1-carboxylic acid cyclohexylamide] displayed an IC50 (p38α biochemical assay) of at most 1000 nM.

In the case of `Cc1onc(-c2ccc(Cl)cc2)c1-c1ccn(C(=O)NC2CCCC2)n1` [Example 9, 3-|3-(4-Chloro-phenyl)-5-methyl-isoxazol-4-yl|-pyrazole-1-carboxylic acid cyclopentylamide], the 50% inhibitory concentration (IC50) (p38α biochemical assay) is at most 1000 nM.

Consider `Cc1onc(-c2ccc(Cl)cc2)c1-c1ccn(C(=O)NC2Cc3ccccc3C2)n1` [Example 10, 3-|3-(4-Chloro-phenyl)-5-methyl-isoxazol-4-yl|-pyrazole-1-carboxylic acid indan-2-ylamide], for which the IC50 (p38α biochemical assay) is over 1000 nM.

Where the note is “p38α biochemical assay”, `Cc1onc(-c2ccc(Cl)cc2)c1-c1ccn(C(=O)NCc2ccco2)n1` [Example 11, 3-|3-(4-Chloro-phenyl)-5-methyl-isoxazol-4-yl|-pyrazole-1-carboxylic acid (furan-2-ylmethyl)-amide] showed a 50% inhibitory concentration (IC50) of over 1000 nM.

As to `Cc1onc(-c2ccc(Cl)cc2)c1-c1ccn(C(=O)NCC2CCCO2)n1` (centres unmarked) [Example 12, 3-|3-(4-Chloro-phenyl)-5-methyl-isoxazol-4-yl|-pyrazole-1-carboxylic acid (tetrahydro-furan-2-ylmethyl)-amide], the IC50 (p38α biochemical assay) was over 1000 nM.

`Cc1onc(-c2ccc(Cl)cc2)c1-c1ccn(C(=O)N(C)C(C)C)n1` [Example 13, 3-|3-(4-Chloro-phenyl)-5-methyl-isoxazol-4-yl|-pyrazole-1-carboxylic acid isopropyl-methyl-amide] showed an IC50 (p38α biochemical assay) of over 1000 nM.

For `Cc1onc(-c2ccc(Cl)cc2)c1-c1ccn(C(=O)NC(CO)CO)n1` [Example 14, 3-|3-(4-Chloro-phenyl)-5-methyl-isoxazol-4-yl|-pyrazole-1-carboxylic acid (2-hydroxy-1-hydroxymethyl-ethyl)-amide], the IC50 (p38α biochemical assay) is over 1000 nM.

With `Cc1onc(-c2ccc(Cl)cc2)c1-c1ccn(C(=O)NCC(C)C)n1` [Example 15, 3-|3-(4-Chloro-phenyl)-5-methyl-isoxazol-4-yl|-pyrazole-1-carboxylic acid isobutyl-amide], the IC50 (p38α biochemical assay) is at most 1000 nM.

Turning to `Cc1onc(-c2ccc(Cl)cc2)c1-c1cc(C)n(C(=O)NC(C)C)n1` [Example 16, 3-|3-(4-Chloro-phenyl)-5-methyl-isoxazol-4-yl|-5-methyl-pyrazole-1-carboxylic acid isopropylamide], the IC50 (p38α biochemical assay) was at most 1000 nM.

Consider `Cc1onc(-c2cccc(C(F)(F)F)c2)c1-c1ccn(C(=O)NC(C)C)n1` [Example 19, 3-|5-Methyl-3-(3-trifluoromethyl-phenyl)-isoxazol-4-yl|-pyrazole-1-carboxylic acid isopropylamide], for which the IC50 (p38α biochemical assay) was over 1000 nM.

The compound `Cc1onc(-c2ccc(Cl)cc2)c1-c1ccn(C(=O)CC(C)C)n1` [Example 20, 1-{3-|3-(4-Chloro-phenyl)-5-methyl-isoxazol-4-yl|-pyrazol-1-yl}-3-methyl-butan-1-one] yielded an IC50 (p38α biochemical assay) of over 1000 nM.

Under “p38α biochemical assay”, `Cc1onc(-c2ccc(F)cc2Cl)c1-c1ccn(C(=O)NC(C)C)n1` [Example 21, 3-|3-(2-Chloro-4-fluoro-phenyl)-5-methyl-isoxazol-4-yl|-pyrazole-1-carboxylic acid isopropylamide] gave an IC50 of at most 1000 nM.

Where the note is “p38α biochemical assay”, `COCc1onc(-c2ccc(Cl)cc2)c1-c1ccn(C(=O)NC(C)C)n1` [Example 22, 3-|3-(4-Chloro-phenyl)-5-methoxymethyl-isoxazol-4-yl|-pyrazole-1-carboxylic acid isopropylamide] registered an IC50 of at most 1000 nM.

Consider `Cc1onc(-c2ccc(F)c(Cl)c2)c1-c1ccn(C(=O)NC(C)C)n1` [Example 23, 3-|3-(3-Chloro-4-fluoro-phenyl)-5-methyl-isoxazol-4-yl|-pyrazole-1-carboxylic acid isopropylamide], for which the half-maximal inhibitory concentration (IC50) (p38α biochemical assay) was at most 1000 nM.

`Cc1cc(Cl)ccc1-c1noc(C)c1-c1ccn(C(=O)NC(C)C)n1` [Example 24, 3-|3-(4-Chloro-2-methyl-phenyl)-5-methyl-isoxazol-4-yl|-pyrazole-1-carboxylic acid isopropylamide] had an IC50 (p38α biochemical assay) of over 1000 nM.

Regarding `CC(C)NC(=O)n1ccc(-c2c(-c3ccc(F)cc3)noc2CN(C)C)n1` [Example 25, 3-|5-Dimethylaminomethyl-3-(4-fluoro-phenyl)-isoxazol-4-yl|-pyrazole-1-carboxylic acid isopropylamide], the IC50 (p38α biochemical assay) is at most 1000 nM.

Take `CC(C)NC(=O)c1csc(-c2c(-c3ccc(F)cc3)noc2CN2CCNCC2)n1` [Example 28, 2-|3-(4-Fluoro-phenyl)-5-piperazin-1-ylmethyl-isoxazol-4-yl|-thiazole-4-carboxylic acid isopropylamide]: the IC50 (p38α biochemical assay) was at most 1000 nM.
